Source: patent US20240299420A1, “TETRACYCLINE DERIVATIVE-INDUCED MITOHORMESIS MEDIATES DISEASE TOLERANCE AGAINST VIRAL INFECTIONS” (priority 2021, published 2024)

What was measured:
[1] = test system: hsp-6::gfp reporter (UPR^mt); type: in vivo, Caenorhabditis elegans; conditions: for Activity in Worm Assay: UPR^mt induction, C. elegans hsp-6::gfp reporter, compounds at 68 µM; for UPR^mt activation (hsp-6::gfp reporter): 68 µM, 9-TB at 17 μM; for induction of MSR and in particular mitohormesis: summary of screen of 51 tetracycline derivatives
E. coli = experiment: Minimum inhibitory concentration (MIC) of bacterial growth; type: cell-based; conditions: compared with Dox
P. aeruginosa = experiment: as above; type: cell-based; conditions: compared with Dox
[2] = test system: mouse bone marrow derived macrophages (BMDM); experiment: IFNβ measurement in BMDM culture medium (ELISA); type: cell-based; conditions: ddC 100 μM for 72 hours, Dox 30 μg/ml for 14 hours

Row | Molecule | Activity in Worm Assay [1] | also measured
1 | CCCCc1ccc(O)c2c1C[C@H]1C[C@H]3[C@H](N(C)C)C(O)=C(C(N)=O)C(=O)[C@@]3(O)C(O)=C1C2=O [7-butyl sancycline] | slight | –
2 | CN(C)c1ccc(O)c2c1C[C@H]1C[C@H]3CC(O)=C(C(N)=O)C(=O)[C@@]3(O)C(O)=C1C2=O [4-dedimethylamino minocycline] | inactive | –
3 | CN(C)c1cc(-c2ccc(C(=O)O)s2)c(O)c2c1C[C@H]1C[C@H]3[C@H](N(C)C)C(O)=C(C(N)=O)C(=O)[C@@]3(O)C(O)=C1C2=O [9-(4′-carboxy-1′-thiophene) minocycline] | inactive | –
4 | CCc1ccc2c(c1O)C(=O)C1=C(O)[C@]3(O)C(=O)C(C(N)=O)=C(O)[C@@H](N(C)C)[C@@H]3[C@@H](O)[C@@H]1[C@H]2C [9-ethyl doxycycline] | inactive | –
5 | CCCCCC(=O)O[C@H]1[C@H]2C(=C(O)[C@]3(O)C(=O)C(C(N)=O)=C(O)[C@@H](N(C)C)[C@H]13)C(=O)c1c(O)cccc1[C@@H]2C [5-hexanoate doxycycline] | slight | –
6 | CN(C)c1cc(-c2sccc2C(=O)O)c(O)c2c1C[C@H]1C[C@H]3[C@H](N(C)C)C(O)C(C(N)=O)C(=O)[C@@]3(O)C(O)=C1C2=O (stereo partly drawn) [9-(2′carboxy-1′-thiophene) minocycline] | inactive | –
7 | CN(C)c1cc(NC(=O)CNC(C)(C)C)c(O)c2c1C[C@H]1C[C@H]3[C@H](N(C)C)C(O)=C(C(N)=O)C(=O)[C@@]3(O)C(O)=C1C2=O [Tygacil ™, reference compound] | slight | UPR^mt activation (hsp-6::gfp reporter) [1]: did not activate
8 | CN(C)[C@@H]1C(O)=C(C(N)=O)C(=O)[C@@]2(O)C(O)=C3C(=O)c4c(O)cccc4[C@@](C)(O)[C@H]3[C@H](O)[C@@H]12 [oxytetracycline, reference compound] | slight | –
9 | CN(C)[C@@H]1C(O)=C(C(N)=O)C(=O)[C@@]2(O)C(O)=C3C(=O)c4c(O)ccc(Br)c4C[C@H]3C[C@@H]12 [7-bromo sancycline] | – | MIC for E. coli (E. coli): significantly higher MIC; induction of MSR and in particular mitohormesis [1]: strongly induce MSR; MIC for P. aeruginosa (P. aeruginosa): significantly higher MIC
10 | Nc1ccn([C@H]2CC[C@@H](CO)O2)c(=O)n1 [ddC, 2′,3′-dideoxycytidine, reference compound] | – | effect on Dox-induced secretion of IFNβ [2]: abrogated
11 | CN(C)c1cc(NC(=O)Nc2cc(C(F)(F)F)cc(C(F)(F)F)c2)c(O)c2c1C[C@H]1C[C@H]3[C@H](N(C)C)C(O)=C(C(N)=O)C(=O)[C@@]3(O)C(O)=C1C2=O [9-(3,5-trifluoromethyl-phenylurea) aminominocycline] | inactive | –
12 | CN(C)[C@@H]1C(O)=C(C(N)=O)C(=O)[C@@]2(O)C(O)=C3C(=O)c4c(O)ccc(C5CCCC5)c4C[C@H]3C[C@@H]12 [7-cyclopentyl sancycline] | inactive | –
13 | COc1ccc(/C=C2\c3cccc(O)c3C(=O)C3=C(O)[C@]4(O)C(=O)C(C(N)=O)=C(O)[C@@H](N(C)C)[C@@H]4[C@@H](O)[C@@H]32)cc1 [13-(4′-methoxyphenyl) methacycline] | slight | –
14 | CC(=O)Nc1ccc2c(c1O)C(=O)C1=C(O)[C@]3(O)C(=O)C(C(N)=O)=C(O)[C@@H](N(C)C)[C@@H]3[C@@H](O)[C@@H]1[C@H]2C [9-acetylamino doxycycline] | inactive | –
15 | CN(C)[C@@H]1C(O)=C(C(N)=O)C(=O)[C@@]2(O)C(O)=C3C(=O)c4c(O)cccc4/C(=C\c4ccc(Br)cc4)[C@H]3[C@H](O)[C@@H]12 [13-(4′-bromophenyl) methacycline] | slight | –
16 | CN(C)[C@@H]1C(O)=C(C(N)=O)C(=O)[C@@]2(O)C(O)=C3C(=O)c4c(O)cccc4C(CSC4CCCC4)[C@H]3[C@H](OC(=O)C3CCCC3)[C@@H]12 (stereo partly drawn) [5-cyclopentanoate-13-cyclopentylthio dihydro methacycline] | slight | –
17 | CN(C)c1ccc(O)c2c1C[C@H]1C[C@H]3[C@H](N(C)C)C(O)=C(C(N)=O)C(=O)[C@@]3(O)C3NN=C2C31 (stereo partly drawn) [11,12-pyrazolo minocycline] | inactive | –
18 | CN(C)[C@@H]1C(O)=C(C(N)=O)C(=O)[C@@]2(O)C(O)=C3C(=O)c4c(O)ccc(-c5ccc(F)cc5)c4C[C@H]3C[C@@H]12 [7-(4-fluoro-phenyl)sancycline] | inactive | –
19 | C[C@H]1c2cccc(O)c2C(=O)C2=C(O)[C@]3(O)C(=O)C(C#N)=C(O)[C@@H](N(C)C)[C@@H]3[C@@H](O)[C@@H]21 [2N-nitrile doxycycline] | inactive | –
20 | CCC(=O)O[C@H]1[C@H]2C(=C(O)[C@]3(O)C(=O)C(C(N)=O)=C(O)[C@@H](N(C)C)[C@H]13)C(=O)c1c(O)cccc1[C@@H]2C [5-propionate doxycycline] | inactive | –
21 | CCOC(=O)/C=C/c1ccc2c(c1O)C(=O)C1=C(O)[C@]3(O)C(=O)C(C(N)=O)=C(O)[C@@H](N(C)C)[C@@H]3[C@@H](O)[C@@H]1[C@H]2C [9-ethylacrylate doxycycline] | slight | –

Row | Molecule | Activity in Worm Assay [1] | also measured
22 | CN(C)c1ccc(OS(=O)(=O)C(F)(F)F)c2c1C[C@H]1C[C@H]3[C@H](N(C)C)C(O)=C(C(N)=O)C(=O)[C@@]3(O)C(O)=C1C2=O [10-triflate minocycline] | inactive | –
23 | CN(C)[C@@H]1C(O)=C(C(N)=O)C(=O)[C@@]2(O)C(O)=C3C(=O)c4c(O)ccc(/C=C/c5ccccc5)c4C[C@H]3C[C@@H]12 [7-(1-styrylphenyl) sancycline] | inactive | –
24 | 11,12-pyrazolo doxycycline | inactive | –
25 | 4-oxime minocycline | inactive | –
26 | CC(C)SCC1c2cccc(O)c2C(=O)C2=C(O)[C@]3(O)C(=O)C(C(N)=O)=C(O)[C@@H](N(C)C)[C@@H]3[C@@H](O)[C@@H]21 (stereo partly drawn) [13-isopropylthio dihydro methacycline] | slight | –
27 | CN(C)[C@@H]1C(O)=C(C(N)=O)C(=O)[C@@]2(O)C(O)=C3C(=O)c4c(O)ccc(Cl)c4[C@@H](O)[C@H]3C[C@@H]12 [demeclocycline, reference compound] | slight | –
28 | CN(C)[C@@H]1C(O)=C(C(N)=O)C(=O)[C@@]2(O)C(O)=C3C(=O)c4c(O)cccc4S[C@H]3C[C@@H]12 [Thiatetracycline, reference compound] | inactive | –
29 | 7,9-bis(2,6-difluoro-4-pyridynyl)-sancycline [7,9-bis3POyr26 diF dox] | – | MIC for E. coli (E. coli): significantly higher MIC; induction of MSR and in particular mitohormesis [1]: strongly induce MSR; MIC for P. aeruginosa (P. aeruginosa): significantly higher MIC
30 | CCc1cc(N(C)C)c2c(c1O)C(=O)C1=C(O)[C@]3(O)C(=O)C(C(N)=O)=C(O)[C@@H](N(C)C)[C@@H]3C[C@@H]1C2 [9-ethyl minocycline] | inactive | –
31 | CN(C)c1ccc(O)c2c1C[C@H]1C[C@H]3[C@H](N(C)C)C(O)=C(C#N)C(=O)[C@@]3(O)C(O)=C1C2=O [2N nitrile minocycline] | inactive | –
32 | CN(C)[C@@H]1C(O)=C(C(N)=O)C(=O)[C@@]2(O)C(O)=C3C(=O)c4c(ccc(C(C)(C)C)c4O)C[C@H]3C[C@@H]12 [9-tert-butyl sancycline] | inactive | –
33 | C=C1C(=O)c2c(O)ccc(N(C)C)c2C[C@H]1C[C@H](C)[C@@H](C)N(C)C [2N-1,1′-dimethylbutane minocycline] | slight | –
34 | Omadacycline [reference compound] | inactive | UPR^mt activation (hsp-6::gfp reporter) [1]: did not activate
35 | CN(C)[C@@H]1C(O)=C(C(N)=O)C(=O)[C@@]2(O)C(O)=C3C(=O)c4c(O)cccc4C(CSc4ccccc4)[C@H]3[C@H](O)[C@@H]12 (stereo partly drawn) [13-thiophenyl dihydro methacycline] | slight | –
36 | CN(C)c1cc(NC(=O)CN2CCCC2)c(O)c2c1C[C@H]1C[C@H]3[C@H](N(C)C)C(O)=C(C(N)=O)C(=O)[C@@]3(O)C(O)=C1C2=O [9-(pyrrolidinyl-methylcarbonyl) aminominocycline] | inactive | –
37 | CN(C)c1ccc(O)c2c1C[C@H]1C[C@H]3[C@H](N(C)C)C(O)=C(C(N)=O)C4=NNC(O)(C1C2=O)[C@]43O (stereo partly drawn) [1,12-hydroxypyrazolo minocycline] | inactive | –
38 | CN(C)c1cc(N)c(O)c2c1C[C@H]1C[C@H]3CC(O)=C(C(N)=O)C(=O)[C@@]3(O)C(O)=C1C2=O [4-dedimethylamino-9-aminominocycline] | inactive | –
39 | NC(=O)C1=C(O)C[C@@H]2C[C@@H]3Cc4ccc(N)c(O)c4C(=O)C3=C(O)[C@]2(O)C1=O [4-dedimethyl-amino-9-amino sancycline] | inactive | –
40 | 8-bromo sancycline | – | MIC for E. coli (E. coli): significantly higher MIC; induction of MSR and in particular mitohormesis [1]: strongly induce MSR; MIC for P. aeruginosa (P. aeruginosa): significantly higher MIC
41 | CN(C)[C@@H]1C(O)=C(C(N)=O)C(=O)[C@@]2(O)C(O)=C3C(=O)c4c(O)cccc4C(CSC4CCCC4)[C@H]3[C@H](O)[C@@H]12 (stereo partly drawn) [13-cyclopentylthio dihydro methacycline] | slight | –
42 | CN(C)c1ccc(O)c2c1C[C@H]1C[C@H]3[C@H](N(C)C)C(O)=C(C(N)=O)C(=O)[C@@]3(O)C(O)=C1C2=O [minocycline, reference compound] | inactive | UPR^mt activation (hsp-6::gfp reporter) [1]: did not activate
